How the values were obtained:
[1] = tested on: Dengue virus type 2 strain New Guinea C (NG-C); assay: Dengue viral assay (cytopathic effect, Huh-7.5 cells); format: cell-based; settings: Huh7.5, Dengue virus type 2 (NG-C strain), read-out: Dengue NGC EC50
Procedure: (§1) The Dengue virus type 2 strain New Guinea C (NG-C) and the Dengue virus type 4 strain H241 were purchased from ATCC (Manassas, Va.; item numbers VR-1584 and VR-1490, respectively). The Zika virus strain MR766 was purchased from ATCC (item #VR-1838) and the Zika virus strain IbH 30656 was purchased from BEI Resources (Manassas, Va.; item number NR-500066). 24 h prior to dosing, Huh-7.5 cells were plated in 96 well plates at a density of 1.5×10^5/mL in DMEM medium supplemented with 10% fetal bovine serum, 1% HEPES buffer, 1% Penicillin/Streptomycin and 1% non-essential amino acids (all Mediatech, Manassas, Va.). At the day of infection, serially diluted compounds were added to cells and incubated for 24 h. After the end of the 24 h pre-incubation period, cells were infected with either Dengue virus type 2 NG-C, Dengue virus type 4 H241, Zika virus strain MR766 or Zika virus strain IbH 30656. The virus inoculum was selected to cause 80-90% cytopathic effect in four (Zika) to five (Dengue) days. Infected cells were incubated for four to five days at 37° C., 5% CO2. To develop the assay, 100 μL media was replaced with 100 μl CellTiter-Glo® reagent (Promega, Madison, Wis.) and incubated for 10 mins at R.T. Luminescence was measured on a Victor ×3 multi-label plate reader. Potential compound cytotoxicity was determined using uninfected parallel cultures.

[2] = tested on: Huh-7 cells containing the self-replicating, subgenomic HCV replicon; assay: HCV replicon assay; format: cell-based; settings: Hepatitis C virus; Huh-7 replicon cells, 72 h, luciferase
Zika virus = assay: Zika viral assay (cytopathic effect, Huh-7.5 cells); format: cell-based; settings: Huh7.5, read-out: Zika EC50
Procedure: as §1

Human rhinovirus 1B = assay: Picornavirus / enterovirus assay, HRV 1B (HeLa-OHIO cells); format: cell-based; settings: Rhinovirus A; HeLa-OHIO cells, 33° C.; read-out: HRV 1B EC50
Human rhinovirus 16 = assay: Enterovirus assay, HRV 16 (HeLa-OHIO cells); format: cell-based; settings: Rhinovirus A
Procedure: (§2) HeLa OHIO cells were purchased from Sigma Aldrich (St Louis, Mo.) and cultured in MEM with Glutamax (Gibco cat. #41090) supplemented with 10% FBS (Mediatech cat. #35-011-CV) and 1% penicillin/streptomycin (Mediatech cat. #30-002-CI), at 37° C. with 5% CO2. RD cells were purchased from ATCC (Manassas, Va.) and cultured in DMEM, supplemented with 10% FBS (Mediatech cat. #35-011-CV) and 1% penicillin/streptomycin (Mediatech cat. #30-002-CI), at 37° C. with 5% CO2. For […]68 and CVB3, HeLa-OHIO cells were plated at a density of 1.5×10^5 cells per mL (1.5×10^4 cells per well) in assay media (MEM without phenol red or L-glutamine (Gibco cat. #51200) supplemented with 1% FBS, 1% penicillin/streptomycin (Mediatech cat. #30-002-CI) and 1% Glutamax (Gibco cat. #35050)) in clear-bottom 96 well plates. For EV71, RD cells were plated at a density of 5×10^4 cells per mL (5000 cells per well) in assay media (DMEM supplemented with 2% FBS and 1% penicillin/streptomycin). After 24 h, media was removed and replaced with serially diluted compounds in assay media. […] After 2-6 days, cell viability was measured using CellTiter Glo Luminescent Cell Viability Assay (Promega cat. #G7572). […] Plates were incubated at R.T. for 5 mins, then luminescence was measured using a Perkin Elmer multilabel counter Victor3V. EC50 values were determined using XLFit.

Human rhinovirus 14 = assay: Enterovirus assay, HRV 14 (HeLa-OHIO cells); format: cell-based; settings: Rhinovirus B
Human rhinovirus 75 = assay: Enterovirus assay, HRV 75 (HeLa-OHIO cells); format: cell-based; settings: Rhinovirus A
Procedure: as §2

CVB3 = assay: Enterovirus assay, CVB3 (HeLa-OHIO cells); format: cell-based, Coxsackie virus 3B; settings: Enterovirus B, 37° C.
Procedure: as §2

EV71 = assay: Enterovirus assay, EV71 (RD cells); format: cell-based; settings: Enterovirus A, 37° C.
Procedure: HeLa OHIO cells were purchased from Sigma Aldrich (St Louis, Mo.) and cultured in MEM with Glutamax (Gibco cat. #41090) supplemented with 10% FBS (Mediatech cat. #35-011-CV) and 1% penicillin/streptomycin (Mediatech cat. #30-002-CI), at 37° C. with 5% CO2. RD cells were purchased from ATCC (Manassas, Va.) and cultured in DMEM, supplemented with 10% FBS (Mediatech cat. #35-011-CV) and 1% penicillin/streptomycin (Mediatech cat. #30-002-CI), at 37° C. with 5% CO2. For […]68 and CVB3, HeLa-OHIO cells were plated at a density of 1.5×10^5 cells per mL (1.5×10^4 cells per well) in assay media (MEM without phenol red or L-glutamine (Gibco cat. #51200) supplemented with 1% FBS, 1% penicillin/streptomycin (Mediatech cat. #30-002-CI) and 1% Glutamax (Gibco cat. #35050)) in clear-bottom 96 well plates. For EV71, RD cells were plated at a density of 5×10^4 cells per mL (5000 cells per well) in assay media (DMEM supplemented with 2% FBS and 1% penicillin/streptomycin). After 24 h, media was removed and replaced with serially diluted compounds in assay media. For EC50 measurements, cells were infected in 100 μL assay media with a virus inoculum sufficient to obtain to cause 80-90% cytopathic effect. After 2-6 days, cell viability was measured using CellTiter Glo Luminescent Cell Viability Assay (Promega cat. #G7572). Cells infected with EV-71, EV-68 and CVB3 were cultured at 37° C., while cells infected with hV1b, hV-16, hV-75 were cultured at 33° C. 100 μL media was removed from each well and 100 μL CellTiter Glo reagent was added. Plates were incubated at R.T. for 5 mins, then luminescence was measured using a Perkin Elmer multilabel counter Victor3V. EC50 values were determined using XLFit.

Compound | EC50 [1] [nM] | EC50 [2] [nM] | EC50 (Zika virus) [nM] | EC50 (Human rhinovirus 1B) [nM] | EC50 (Human rhinovirus 16) [nM] | EC50 (Human rhinovirus 14) [nM] | EC50 (Human rhinovirus 75) [nM] | EC50 (CVB3) [nM] | EC50 (EV71) [nM]
C#C[C@]1(O)[C@H](n2cnc3c(N)ncnc32)O[C@](F)(CO)[C@H]1O [Compound 1, (2S,3S,4R,5R)-5-(6-amino-9H-purin-9-yl)-4-ethynyl-2-fluoro-2-(hydroxymethyl)tetrahydrofuran-3,4-diol] | < 3000 | < 3000 | < 3000 | < 3000 | < 3000 | < 3000 | < 3000 | < 3000 | < 3000
C[C@]1(F)[C@H](n2cnc3c(N)nc(N)nc32)O[C@](F)(CO)[C@H]1O [Compound 15, (2S,3S,4R,5R)-5-(2,6-diamino-9H-purin-9-yl)-2,4-difluoro-2-(hydroxymethyl)-4-methyltetrahydrofuran-3-ol] | > 100000 | > 100000 |  | 30000 to 100000 |  |  |  |  | 
C#C[C@]1(O)[C@H](n2cc(F)c3c(N)ncnc32)O[C@](F)(CO)[C@H]1O [Compound 7, (2S,3S,4R,5R)-5-(4-amino-5-fluoro-7H-pyrrolo[2,3-d]pyrimidin-7-yl)-4-ethynyl-2-fluoro-2-(hydroxymethyl)tetrahydrofuran-3,4-diol] | < 3000 |  |  | < 3000 |  |  |  |  | < 3000
C#C[C@]1(OC(=O)C(C)C)[C@H](n2cnc3c(N)ncnc32)O[C@](F)(COC(=O)C(C)C)[C@H]1OC(=O)C(C)C [Compound 43, (2S,3S,4R,5R)-5-(6-amino-9H-purin-9-yl)-4-ethynyl-2-fluoro-2-((isobutyryloxy)methyl)tetrahydrofuran-3,4-diylbis(2-methylpropanoate)] | < 3000 |  |  | < 3000 |  |  |  |  | < 3000
C[C@]1(O)[C@H](n2cnc3c(N)ncnc32)O[C@](F)(CO)[C@H]1O [Compound 13, (2S,3S,4R,5R)-5-(6-amino-9H-purin-9-yl)-2-fluoro-2-(hydroxymethyl)-4-methyltetrahydrofuran-3,4-diol] | > 100000 | 3000 to 30000 |  | 3000 to 30000 |  |  |  |  | 
C#C[C@@]1(O)[C@H](O)[C@@H](CO)O[C@H]1c1ccc2c(N)ncnn12 [Compound 26, (2S,3R,4R,5R)-2-(4-aminopyrrolo[2,1-f][1,2,4]triazin-7-yl)-3-ethynyl-5-(hydroxymethyl)tetrahydrofuran-3,4-diol] | < 3000 |  |  | < 3000 |  |  |  |  | < 3000

Reference: patent US20190169221A1, “SUBSTITUTED NUCLEOSIDES, NUCLEOTIDES AND ANALOGS THEREOF” (Janssen BioPharma, Inc., priority 2016, published 2019)
